This is an account of results in the OPERA property sets (Mansouri et al. 2018).

Molecules are shown by their SMILES.

Settings in one data set: not given
One may read the boiling point as the temperature of boiling at a given pressure. What is called melting point is the temperature, or range, at which the solid turns liquid. With `COc1ccc(C(=O)O)cc1`, the boiling point turned out to be 276 °C, the melting point was determined as 185 °C and the ready biodegradability result is given as “readily biodegradable”.

On to `C[C@H](CCC(=O)O)[C@H]1CC[C@H]2[C@@H]3[C@H](O)C[C@@H]4C[C@H](O)CC[C@]4(C)[C@H]3C[C@H](O)[C@]12C`, for which the melting point was found to be 198 °C.

Compound `CC(=O)c1cccc2ccccc12` yielded a boiling point of 297 °C, a log10 vapour pressure (mmHg) of -3.41 and a melting point of 34 °C.

Regarding `C=Cc1ccc(CC)cc1`, the boiling point stood at 192 °C, the log10 vapour pressure (mmHg) was -0.0246, the melting point was -49.7 °C and the ready biodegradability result is “not readily biodegradable”.

`O=C(Oc1ccccc1)n1c(C(F)(F)F)nc2cc(Cl)c(Cl)cc21`: the melting point was determined as 103 °C.

`CC1CC(C)CC(C)C1` (mixture of isomers) had a boiling point of 141 °C.

In turn, `CCCCCCCCCCCCCCCCCC(=O)OC[C@@H](O)[C@H]1OC[C@H](O)[C@H]1O` yielded a melting point of 57 °C.

The compound `O=C(O)c1c(F)cccc1Cl` showed a melting point of 160 °C.

`CCCOC=O` registered a boiling point of 80.9 °C, a log10 Koa of 2.66, a log10 vapour pressure (mmHg) of 1.92 and a melting point of -92.9 °C.

In turn, `C[Si](C)(C)O[Si](C)(C)O[Si](C)(C)O[Si](C)(C)C` came in with a boiling point of 194 °C, a log10 Henry constant (atm·m³/mol) of 1.23, a log10 vapour pressure (mmHg) of -0.426 and a melting point of -76 °C.

Consider `COc1ccc(C)cc1N`, for which the boiling point was determined as 235 °C, the melting point came to 53 °C and the ready biodegradability result was “not readily biodegradable”.

For the compound `CCOCOCOCC`, the boiling point amounted to 141 °C.

The compound `Oc1ccc(Cl)c2cccnc12` showed a melting point of 130 °C.

Regarding `CCOC(=O)NP(=O)(N1CC1)N1CC1`, the melting point was 89 °C.

Compound `CCC(CC)C(C)C` yielded a boiling point of 116 °C, a log10 biodegradation half-life (days) of 0.778, a log10 vapour pressure (mmHg) of 1.38 and a melting point of -115 °C.

In turn, `CCCCCOC(=O)CCCC` had a boiling point of 204 °C and a melting point of -78.8 °C.

Consider `O=C(O)c1ccccc1-c1ccccc1`, for which the boiling point was 344 °C and the melting point worked out at 114 °C.

Take `CCOC(=O)C1CC=CCC1` (stereo not drawn): the boiling point worked out at 194 °C.

Consider `CCCCCCC=O`, for which the boiling point worked out at 153 °C, the log10 Henry constant (atm·m³/mol) was -3.57, the log10 vapour pressure (mmHg) came out at 0.546 and the melting point is -43.3 °C.

For `CC(=O)c1ccc(Cl)cc1Cl`, the melting point worked out at 33.5 °C.

Compound `CCC(C)ON=O` (stereo not drawn) gave a boiling point of 68.5 °C.

For `CCCCCCCCCCCCC(C)=O`, the melting point is 33.5 °C.

`Oc1c(Cl)ccc(Cl)c1Cl` gave a melting point of 58 °C.

`COc1ccc(CO)cc1OC`: the boiling point was found to be 298 °C.

Compound `C1CCCCCCCCCCCCCC1` had a melting point of 61.3 °C.

`CC(C)[N+](=O)[O-]` displayed a boiling point of 120 °C, a log10 vapour pressure (mmHg) of 1.24 and a melting point of -91.3 °C.

`CCC(CC)CC(C)(C)C`: the boiling point is 147 °C.

Compound `C/C(=C\C(=O)O)C1CCCCC1` showed a melting point of 85.5 °C.

Consider `Cc1coc(C)c1`, for which the boiling point worked out at 94 °C.

In turn, `CCCS(=O)(=O)O` showed a melting point of 7.5 °C.

Compound `Cc1[nH]nc(Cl)c1[N+](=O)[O-]` gave a melting point of 111 °C.

`O=c1c2ccccc2nc2n1CCc1c-2[nH]c2ccccc12` yielded a melting point of 260 °C.

As to `Brc1ccccc1Oc1ccccc1`, the log10 Koa was found to be 7.24.

As to `O=C(c1ccccc1)C(O)c1ccccc1` (stereo not drawn), the ready biodegradability result is “readily biodegradable”.

`c1ccc2c(c1)nnn2C1CCCCC1` gave a melting point of 104 °C.

In the case of `O=C1c2ccccc2C(=O)C1C(=O)C(c1ccccc1)c1ccccc1`, the log10 vapour pressure (mmHg) was -9.99 and the melting point was 146 °C.

As for `CCCCCCCCCCCCCCCCCCN`, the boiling point is 347 °C and the melting point is 52.9 °C.

As for `CC1(C)[C@@H]2CC[C@@](C)(C2)[C@@H]1O`, the melting point is 45.8 °C.

Turning to `Cc1cc(O)cc(O)c1`, the boiling point came out at 290 °C, the melting point was 108 °C and the ready biodegradability result is reported as “not readily biodegradable”.

`N#CCCc1ccccc1`: the boiling point was found to be 261 °C and the melting point is -1 °C.

With `CCOC(=O)C(CCC(C)C)C(=O)OCC`, the boiling point worked out at 241 °C.

Take `CCCCCCCCCCCCCCCCCC(=O)OCC`: the log10 vapour pressure (mmHg) was -5.59 and the melting point is 33 °C.

Compound `O=C(CCCN1CC=C(n2c(=O)[nH]c3ccccc32)CC1)c1ccc(F)cc1` showed a melting point of 146 °C.

`c1ccc(Cn2ccnc2)cc1` showed a boiling point of 310 °C and a melting point of 69 °C.

In turn, `CCOc1ccc(C)cc1` registered a boiling point of 188 °C.

The compound `CCN(CCO)c1ccc(/N=N/c2ccc([N+](=O)[O-])cc2Cl)cc1` came in with a melting point of 133 °C.

Regarding `COc1ccccc1CC#N`, the melting point worked out at 69.8 °C.

In turn, `Clc1cc(Cl)c(Cl)c(Cl)c1Cl` registered a boiling point of 277 °C, a log10 Henry constant (atm·m³/mol) of -3.15, a log10 Koa of 6.49 and a log10 Koc (L/kg) of 3.5. The log10 vapour pressure (mmHg) was -3, the melting point amounted to 86 °C and the ready biodegradability result is reported as “not readily biodegradable”.

In turn, `COc1ccc(CCl)cc1` showed a boiling point of 262 °C and a melting point of 24.5 °C.

Staying with this data set, now noted: fish.
`Clc1ccc(Cl)c(-c2ccc(Cl)c(Cl)c2)c1` showed a log10 BCF of 5.08 and a log10 biotransformation half-life (days) of 2.65.

In the case of `CCCCCCCCC1CCCCC1`, the log10 biotransformation half-life (days) was 1.1.

Consider `Cc1cc(Cl)ccc1N`, for which the log10 BCF turned out to be 1.54.

In turn, `c1ccc2nc3ccc4ccccc4c3cc2c1` displayed a log10 BCF of 2.02.

On to `N#Cc1ccc(C#N)cc1`, for which the log10 BCF was 0.3 and the log10 biotransformation half-life (days) is -0.81.

`C=Cc1ccc(CC)cc1` displayed a log10 BCF of 2.69.

On to `COc1ccc(C)cc1N`, for which the log10 BCF was 0.55 and the log10 biotransformation half-life (days) is -1.

In turn, `CCCCCCC1CCCC(C)C1` (stereo not drawn) registered a log10 biotransformation half-life (days) of 0.97.

As to `CC(C)[N+](=O)[O-]`, the log10 BCF turned out to be 0.92 and the log10 biotransformation half-life (days) was -1.2.

As for `Clc1cc(Cl)c(Cl)c(Cl)c1Cl`, the log10 BCF came to 3.75 and the log10 biotransformation half-life (days) was determined as 1.87.
